Experimental data from US10596166B2, “Combination composition comprising huperzine” (priority 2015, dated 2020).

System: nerve/muscle co-culture injured by glutamate
Assay: glutamate toxicity on nerve/muscle co-culture (NMJ area, neurite network)
Type: cell-based, human muscle, rat spinal cord explants
Settings: glutamate 60 μM, 20 min
Procedure: Human muscle (promocell, Batch: 3061107) was prepared according to a previously described method from portions of a biopsy from a healthy subject (Braun et al., (1996) J. Neurol Sci. 136: 17-23). The human muscle cell line was established from dissociated cells (21 000 cells per wells), plated in gelatin-coated 0.1% (Sigma, Batch: 051M0012V) in water on 48 wells plate (greiner, Batch: E13111ME) and grows in a proliferation medium consisting of mix of 62% of MEM medium (PAN, Batch: 2761113) and 25% of M199 medium (PAN, Batch: 6720314) supplemented with glutamine 2 mM (PAN, Batch: 8150713), human insulin 10 μg/ml (PAN, Batch: 1481013), Human recombinant Epidermal growth factor 10 ng/ml (EGF, GIBCO, Batch: 1291552A), human recombinant Fibroblast growth factor basic 2 ng/ml (bFGF, PAN, Batch: H080113), foetal calf serum 10% (FCS, GIBCO, Batch: 41Q7218K) and 2% of Penicillin 10.000 U/ml and Streptomycin 10.000 μg/ml (PS, PAN, Batch: 1451013). The medium was changed every 2 days. Five days after the start of culture, immediately after satellite cell fusion, whole transverse slices of 13-day-old rat Wistar embryos (Janvier, France) spinal cords with 4 dorsal root ganglia (DRG) attached are placed on the muscle monolayer (one explant per well in the central area). DRG are necessary to achieve a good ratio of innervation. Innervated cultures were maintained in a mixed (67%/25%) medium composed of MEM and medium 199, supplemented with 5% FCS, insulin 5 μg/ml, glutamine 2 mM and 2% PS. After 24 h of co-culture, neurites were observed growing out of the spinal cord explants. These neurites made contacts with myotubes and induced the first contractions after ˜8 days. Quickly thereafter, innervated muscle fibres located in the proximity to the spinal cord explants, were virtually continuously contracting. Innervated fibres were morphologically and spatially distinct from the non-innervated ones and could easily be distinguished from them.
On day 27, co-cultures were pre-incubated 1 hour before glutamate application with test compounds (different concentrations) tested alone or in a mixture of the 3 compounds.
One hour after HA, CA or FA Compounds and mixture (HA/CA/FA) incubation, glutamate was added to a final concentration of 60 μM diluted in control medium still in presence of 3 compounds or mix of compounds for 20 min.
After 20 min injuries, co-cultures were washed and individual test compounds and mixture were added for an additional 48 h.
After 48 h, the cocultures were prepared for end points evaluation (see below).
After 48H of intoxication, cells were incubated with 500 nM α-bungarotoxin coupled with Alexa 488 (Molecular probes, Batch: 1434893) during 15 min in culture innervations medium at 37° C. to detect NMJ. After 2 washing in PBS (Pan Biotech, Batch: 7560414), cells were fixed by a solution of 4% of paraformaldehyde (Sigma Aldrich, Batch: SLBF7274V) in PBS, pH=7.3 for 20 min at room temperature.
The cells were washed 2 times in PBS and then permeabilized and non-specific sites were blocked with a solution of PBS containing 0.1% of saponin (Sigma-Aldrich, Batch: BCBJ8417V) and 1%0 FCS (Gibco, Batch: 41F0423K) for 15 min at room temperature, co-cultures were incubated with a mouse monoclonal anti-neurofilament 200 KD antibody (NF, Sigma Aldrich, Batch: 053M4756) at the dilution of 1/400 in PBS containing 1% FCS, 0.1% saponin, for 2 h at room temperature. Antibody against NF stained the axon of motor neuron. […] Nuclei of neurons were labeled by Hoechst solution, a nuclear fluorescent marker at […] in the same solution (Hoechst solution, SIGMA, batch: 011M4004V).
The NMJ mean size (area) of NMJs and the total length of neurite were assessed under the experimental conditions described above (see Combes et al., 2015). For each condition, 20 pictures per well were taken in the center area using ImageXpress (Molecular device) with 10× magnification. All images were taken under the same conditions. […]

For `O=C(O)/C=C/c1ccc(O)c(O)c1` [CA, caffeic acid], the “neurite network (area of innervation)” value (CA added 1 h before glutamate) was “slight protection”, the “neurite network (area of innervation)” value (CA highest dose (5 nM)) was “significance was observed” and the “NMJ area (mean size)” value (CA low concentrations) was “unable to protect”. For the same molecule, the “NMJ area (mean size)” value (only at the highest dose (5 nM)) was “able to protect”.

`COc1cc(/C=C/C(=O)O)ccc1O` [FA, ferulic acid] was tested, and the “NMJ area (mean size)” value (FA lowest and highest concentrations) was “inactive”, the “NMJ area (mean size)” value (FA only at 100 nM) was “able to protect” and the “neurite network (area of innervation)” value (highest dose tested (10 μM)) was “moderate effect”.

In the case of `C/C=C1\[C@H]2C=C(C)C[C@]1(N)c1ccc(=O)[nH]c1C2` [HA, huperzine A, reference compound], the “NMJ area (mean size)” value (HA 100 nM) is reported as “significance was observed”, the “neurite network (area of innervation)” value (HA 100 nM, without reaching the significance) is reported as “slight neuroprotection” and the “NMJ area (mean size)” value (HA, all concentrations tested) is reported as “slight protective effect”. For the same molecule, the “neurite network (area of innervation)” value (HA, all concentrations tested) was “no neuronal protective effect”.
